Measured values taken from ChEMBL document CHEMBL1201862, “PubChem BioAssay data set” (2004).
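1) Cells in 96-well plates. 2) Compound, 48 h, 5 concentrations. 3) Linear interpolation between surrounding doses. 4) Unreached endpoint = highest concentration. GI50 is the concentration that inhibits growth by half.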 Activity calls are given as the source filed them. Rule as the data show it: active = GI50 up to about 1.1 µM and inactive = higher. *1 amine or outer side, *2 acyl side, *3 side chain or, on linkers, in order; H or OH if unused. Where a SMILES comes first, the peptide text is derived from it. Bridges are numbered along the chain shown (N, C = ends). [ ]: non-standard residue; d: D form. ξ: configuration not given here. X10 = CCC(C)C(N[*:1])C(O)CC(=O)O[C@H](C(=O)C(C)C(=O)[*:2])C(C)C; NMeY = CN[C@@H](Cc1ccc(O)cc1)C(=O)O; ξNMeL = CNC(CC(C)C)C(=O)O; ξT = CC(O)C(N)C(=O)O

Assays:
Assay in all cases: DTP human tumour cell line panel, 48 h
[1] = system: OVCAR-4
[2] = system: SK-MEL-2
[3] = system: T47D
[4] = system: Malme-3M
[5] = system: CCRF-CEM
[6] = system: MCF7
[7] = system: HCC 2998
[8] = system: MOLT-4
[9] = system: U-251
[10] = system: MDA-MB-231
[11] = system: MDA-MB-435
[12] = system: HOP-92
[13] = system: SK-OV-3
[14] = system: NCI-H226
[15] = system: UACC-257
[16] = system: OVCAR-5
[17] = system: HL-60
[18] = system: ACHN
[19] = system: SK-MEL-28
[20] = system: IGROV-1

| SMILES | GI50 [1] | GI50 [2] | GI50 [3] | GI50 [4] | GI50 [5] | GI50 [6] | GI50 [7] | GI50 [8] | GI50 [9] | GI50 [10] | GI50 [11] | GI50 [12] | GI50 [13] | GI50 [14] | GI50 [15] | GI50 [16] | GI50 [17] | GI50 [18] | GI50 [19] | GI50 [20] |
| --- | --- | --- | --- | --- | --- | --- | --- | --- | --- | --- | --- | --- | --- | --- | --- | --- | --- | --- | --- | --- |
| CCSSCS(C)(=O)=O | 17.8 µM (inactive) | 39.1 µM (inactive) | 35.2 µM (inactive) | 77.3 µM (inactive) | 3.9 µM (inactive) | 22.5 µM (inactive) | 18.9 µM (inactive) | 0.975 µM (active) | 36.4 µM (inactive) | 89.1 µM (inactive) | 22.6 µM (inactive) | 16.9 µM (inactive) | 56.6 µM (inactive) | 29.8 µM (inactive) | 21.3 µM (inactive) | 53.1 µM (inactive) | 11.9 µM (inactive) | 30.5 µM (inactive) | 58.5 µM (inactive) | – |
| NC(=O)c1cc(N2CC2)c([N+](=O)[O-])cc1[N+](=O)[O-] [TRETAZICAR] | > 100 µM (inactive) | > 20 µM (inactive) | > 200 µM (inactive) | > 129 µM (inactive) | > 100 µM (inactive) | > 63.2 µM (inactive) | > 100 µM (inactive) | > 63.2 µM (inactive) | > 100 µM (inactive) | > 200 µM (inactive) | > 200 µM (inactive) | > 100 µM (inactive) | > 100 µM (inactive) | > 100 µM (inactive) | > 100 µM (inactive) | > 100 µM (inactive) | > 100 µM (inactive) | > 100 µM (inactive) | > 200 µM (inactive) | > 100 µM (inactive) |
| Cc1ccsc1C(=S)Nc1ccc(Cl)c(/C=N/OC(C)C)c1 | 14.8 µM (inactive) | 55.1 µM (inactive) | 17.8 µM (inactive) | 35.1 µM (inactive) | 38.1 µM (inactive) | 15.6 µM (inactive) | 22.9 µM (inactive) | 11.2 µM (inactive) | 36.6 µM (inactive) | 41.2 µM (inactive) | 49.3 µM (inactive) | > 100 µM (inactive) | 55.5 µM (inactive) | 31.3 µM (inactive) | 47.9 µM (inactive) | > 100 µM (inactive) | 10.3 µM (inactive) | 25.2 µM (inactive) | 67.8 µM (inactive) | 25.8 µM (inactive) |
| CC1=NN(c2cccc(Cl)c2)C2(C1)SCC(=O)N2c1nc2ccccc2s1 (configuration not stated) | 34 µM (inactive) | 22.3 µM (inactive) | 19.8 µM (inactive) | 34.3 µM (inactive) | 21.8 µM (inactive) | 25.6 µM (inactive) | 17.9 µM (inactive) | 16.1 µM (inactive) | 27 µM (inactive) | 19.1 µM (inactive) | 25 µM (inactive) | 32.8 µM (inactive) | 21.6 µM (inactive) | 11.6 µM (inactive) | 22.4 µM (inactive) | 37 µM (inactive) | 22.2 µM (inactive) | 26.8 µM (inactive) | 32.8 µM (inactive) | 21.9 µM (inactive) |
| COc1cc(Oc2nc3c(N)cc(C(F)(F)F)cc3nc2-c2ccccc2)cc(OC)c1OC | 19.2 µM (inactive) | 3.24 µM (inactive) | 5.81 µM (inactive) | 0.869 µM (active) | 4.9 µM (inactive) | 3.17 µM (inactive) | 5.36 µM (inactive) | 3.44 µM (inactive) | 5.9 µM (inactive) | 10.2 µM (inactive) | 0.445 µM (active) | 14.7 µM (inactive) | 4.53 µM (inactive) | 12.8 µM (inactive) | 4.09 µM (inactive) | 31.3 µM (inactive) | 1.16 µM (inactive) | 4.55 µM (inactive) | 14.8 µM (inactive) | 0.916 µM (active) |
| CCC(C)C1NC(=O)C(NC(=O)C(CC(C)C)N(C)C(=O)[C@@H]2CCCN2)C(C)OC(=O)[C@H](Cc2ccc(OC)cc2)N(C)C(=O)[C@@H]2CCCN2C(=O)[C@H](CC(C)C)NC(=O)C(C)C(=O)[C@H](C(C)C)OC(=O)CC1O (some centres not stated) (H-P[ξNMeL][ξT][X10]LP[NMeY](Me); ester 3-C) | 0.000139 µM (active) | < 0.01 µM (active) | 0.000185 µM (active) | 0.000317 µM (active) | 0.000493 µM (active) | < 0.0001 µM (active) | 0.000438 µM (active) | 0.000244 µM (active) | < 0.0001 µM (active) | 0.00042 µM (active) | 0.00047 µM (active) | 0.00121 µM (active) | 0.000386 µM (active) | < 0.01 µM (active) | 0.000815 µM (active) | < 0.01 µM (active) | 0.00389 µM (active) | 0.00234 µM (active) | 0.00014 µM (active) | 0.000288 µM (active) |
| O=CN/C=C/c1cccc(O)c1 | 61.4 µM (inactive) | 58.7 µM (inactive) | 63.4 µM (inactive) | > 82.8 µM (inactive) | 61.1 µM (inactive) | > 34 µM (inactive) | > 74.6 µM (inactive) | 59.8 µM (inactive) | 56.9 µM (inactive) | 49.8 µM (inactive) | 38.2 µM (inactive) | 55.2 µM (inactive) | > 72.1 µM (inactive) | 56.5 µM (inactive) | 63.7 µM (inactive) | 74.6 µM (inactive) | 38.5 µM (inactive) | 50 µM (inactive) | > 84.1 µM (inactive) | 55 µM (inactive) |
| CC(C)=CCC[C@@H](C)C1=C(O)C(O)C(C)=C2N=C(c3ccccc3)C(=O)OC21 (some centres not stated) | 4.41 µM (inactive) | 1.61 µM (inactive) | 1.21 µM (inactive) | 1.14 µM (inactive) | 2.4 µM (inactive) | 1.21 µM (inactive) | 6.62 µM (inactive) | > 7.41 µM (inactive) | 1.57 µM (inactive) | 2.52 µM (inactive) | 3.18 µM (inactive) | 0.723 µM (active) | 1.12 µM (inactive) | 2.88 µM (inactive) | 2.88 µM (inactive) | 18.1 µM (inactive) | 0.521 µM (active) | 2.16 µM (inactive) | 3.07 µM (inactive) | 1.22 µM (inactive) |
| CCNC(=S)NNC(=O)CSc1nc2ccc(I)cc2c(=O)n1Cc1ccccc1 | 10.8 µM (inactive) | 29.4 µM (inactive) | 5.27 µM (inactive) | 23.9 µM (inactive) | 7.98 µM (inactive) | 16.9 µM (inactive) | 17.6 µM (inactive) | 7.48 µM (inactive) | 43.4 µM (inactive) | 41.5 µM (inactive) | 12.9 µM (inactive) | 17.3 µM (inactive) | 35 µM (inactive) | 10.5 µM (inactive) | 17.7 µM (inactive) | > 100 µM (inactive) | 1.81 µM (inactive) | 5.74 µM (inactive) | 63.8 µM (inactive) | 14.6 µM (inactive) |
| CCOC1C=CCCO1 (configuration not stated) | > 100 µM (inactive) | > 100 µM (inactive) | 0.701 µM (active) | > 100 µM (inactive) | > 100 µM (inactive) | > 100 µM (inactive) | 1.55 µM (inactive) | > 100 µM (inactive) | – | > 100 µM (inactive) | > 100 µM (inactive) | > 100 µM (inactive) | > 100 µM (inactive) | > 100 µM (inactive) | > 100 µM (inactive) | > 100 µM (inactive) | > 100 µM (inactive) | > 100 µM (inactive) | > 100 µM (inactive) | > 100 µM (inactive) |
| COc1ccc2c(cnc3c4cc(OC)c(OC)cc4ccc23)c1 | > 100 µM (inactive) | > 100 µM (inactive) | > 100 µM (inactive) | > 100 µM (inactive) | > 100 µM (inactive) | > 100 µM (inactive) | > 100 µM (inactive) | > 100 µM (inactive) | > 100 µM (inactive) | > 100 µM (inactive) | > 100 µM (inactive) | > 100 µM (inactive) | > 100 µM (inactive) | > 100 µM (inactive) | > 100 µM (inactive) | > 100 µM (inactive) | > 100 µM (inactive) | > 100 µM (inactive) | > 100 µM (inactive) | > 100 µM (inactive) |
| CCCC[N+](CCCC)(CCCC)CCCC.O=S(=O)([O-])ON=C1c2ccccc2-c2ccccc21 | > 100 µM (inactive) | > 100 µM (inactive) | > 100 µM (inactive) | – | > 100 µM (inactive) | > 100 µM (inactive) | > 100 µM (inactive) | > 100 µM (inactive) | > 100 µM (inactive) | > 100 µM (inactive) | > 100 µM (inactive) | > 100 µM (inactive) | > 100 µM (inactive) | > 100 µM (inactive) | > 100 µM (inactive) | > 100 µM (inactive) | 36 µM (inactive) | > 100 µM (inactive) | > 100 µM (inactive) | > 100 µM (inactive) |
| O=C(O)CCC(NC(=O)c1ccc(Nc2cnc3ccc(C(F)(F)F)cc3n2)cc1)C(=O)O (configuration not stated) | > 100 µM (inactive) | > 100 µM (inactive) | > 100 µM (inactive) | > 100 µM (inactive) | > 100 µM (inactive) | > 100 µM (inactive) | > 100 µM (inactive) | > 100 µM (inactive) | > 100 µM (inactive) | > 100 µM (inactive) | > 100 µM (inactive) | > 100 µM (inactive) | > 100 µM (inactive) | > 100 µM (inactive) | > 100 µM (inactive) | > 100 µM (inactive) | > 100 µM (inactive) | > 100 µM (inactive) | > 100 µM (inactive) | > 100 µM (inactive) |
| COc1ccc(/C=C2\CCC(CNc3ccc(S(N)(=O)=O)cc3)C2=O)cc1 (configuration not stated) | 31.6 µM (inactive) | 75.7 µM (inactive) | 17 µM (inactive) | 16 µM (inactive) | 2.29 µM (inactive) | 1.74 µM (inactive) | 33.3 µM (inactive) | 7.69 µM (inactive) | 19.9 µM (inactive) | 16.6 µM (inactive) | 18.3 µM (inactive) | 8.53 µM (inactive) | > 100 µM (inactive) | > 69.5 µM (inactive) | 20 µM (inactive) | 21.6 µM (inactive) | 2.15 µM (inactive) | 23.1 µM (inactive) | 16.7 µM (inactive) | 20 µM (inactive) |
